# Source: patent US20060121449A1, “Method for selection of compounds which inhibit clonal cell growth and use thereof” (priority 2002, published 2006)
# “Also recorded” adds a separate entry of the source.
# Legend:
# [1] = tested on: polyoma virus transformed BHK21/c13 cells, clone S100T1; test: Clonal test: clonal growth of S100T1 cells in soft agar (Exp 2, 4, 6, 15, 16); type: cell-based, hamster
# [2] = tested on: polyoma virus transformed BHK21/c13 cells, line S100T1; test: Collocation inhibition test: clonal growth in sparsely and densely seeded areas of a cell density gradient of S100T1 cells in soft agar (Exp 13, 17, 19-26); conditions: for Significance: Exp 17 day 14;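 for Clonal growth, H high density area of cell gradient, High: grades rise with clonal growth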;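 for Clonal growth, H high density area of cell gradient, Low: grades rise with clonal growth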;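 for Clonal growth, H high density area of cell gradient, Medium: grades rise with clonal growth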;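 for Clonal growth, L low density area of cell gradient, High: grades rise with clonal growth and minus or plus-minus means none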;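 for Clonal growth, L low density area of cell gradient, Low: grades rise with clonal growth and minus or plus-minus means none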;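 for Clonal growth, L low density area of cell gradient, Medium: grades rise with clonal growth and minus or plus-minus means none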;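 for all read-outs here: soft agar cultures in 24-well plates with a cell density gradient in the top layer, compounds applied from DMSO stocks, clonal growth scored in sparse versus dense areas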
# [3] = Exp 15, 32000 S100T1 cells/well
# [4] = preliminary results, Exp 13-18, 21-26, high concentration
# [5] = preliminary results, Exp 13-18, 21-26, low concentration
# [6] = preliminary results, Exp 13-18, 21-26, medium concentration
smiles,measurement,setting,value
COc1cc([C@@H]2c3cc4c(cc3[C@H](O)[C@H]3COC(=O)[C@H]23)OCO4)cc(OC)c1OC [Podophyllotoxin],Effect on clonal growth at 0.03 μM,[1]; [3],no significant inhibition
same,Effect on clonal growth at 0.3 μM,[1]; [3],inhibited significantly
same,Concentration inhibiting clones significantly,[1]; Exp 16,More than 0.065 μM Podophyllotoxin inhibited clones
same,Colony inhibiting activity for dosage within a range that might be therapeutic,"[1]; Exp 16, about 40000 S100T1 cells/well",the same activity possibly existed
same,Significance,"[1]; Exp 16 day 14, Podophyllotoxin No 5 (lot 12K1562, solved in DMSO 8 days beforehand, stored frozen), 0.3 μM",probable
same,Growth,"[1]; Exp 16 day 14, Podophyllotoxin No 5 (lot 12K1562, solved in DMSO 8 days beforehand, stored frozen), 0.3 μM in wells",(+))
same,Growth,"[1]; Exp 16 day 14, Podophyllotoxin No 5 (lot 12K1562, solved in DMSO 8 days beforehand, stored frozen), 3 μM in wells",(+))
same,Significance,"[1]; Exp 16 day 14, Podophyllotoxin No 5 (lot 12K1562, solved in DMSO 8 days beforehand, stored frozen), 3 μM, ” = as line above",” and probable and prob-
same,Significance,"[1]; Exp 16 day 14, Podophyllotoxin No 6 (lot 12K1562, solved in DMSO the same day), 0.03 μM",no
same,Significance,"[1]; Exp 16 day 14, Podophyllotoxin No 6 (lot 12K1562, solved in DMSO the same day), 0.065 μM",possible
same,Growth,"[1]; Exp 16 day 14, Podophyllotoxin No 6 (lot 12K1562, solved in DMSO the same day), 0.065 μM in wells",(+)
same,Significance,"[1]; Exp 16 day 14, Podophyllotoxin No 7 (lot 12K1562, solved in DMSO the same day), 0.139 μM",probable
same,Growth,"[1]; Exp 16 day 14, Podophyllotoxin No 7 (lot 12K1562, solved in DMSO the same day), 0.139 μM in wells",(+))
same,Growth,"[1]; Exp 16 day 14, Podophyllotoxin No 7 (lot 12K1562, solved in DMSO the same day), 0.3 μM in wells",(+)
same,Significance,"[1]; Exp 16 day 14, Podophyllotoxin No 7 (lot 12K1562, solved in DMSO the same day), 0.3 μM, ” = as line above",” and possible
same,Significance,"[1]; Exp 16 day 21, Podophyllotoxin No 5 (lot 12K1562, solved in DMSO 8 days beforehand, stored frozen), 0.3 μM",doubtful
same,Growth,"[1]; Exp 16 day 21, Podophyllotoxin No 5 (lot 12K1562, solved in DMSO 8 days beforehand, stored frozen), 0.3 μM in wells",(+
same,Significance,"[1]; Exp 16 day 21, Podophyllotoxin No 5 (lot 12K1562, solved in DMSO 8 days beforehand, stored frozen), 3 μM",probable
same,Growth,"[1]; Exp 16 day 21, Podophyllotoxin No 5 (lot 12K1562, solved in DMSO 8 days beforehand, stored frozen), 3 μM in wells",(+))
same,Significance,"[1]; Exp 16 day 21, Podophyllotoxin No 6 (lot 12K1562, solved in DMSO the same day), 0.03 μM",no
same,Growth,"[1]; Exp 16 day 21, Podophyllotoxin No 6 (lot 12K1562, solved in DMSO the same day), 0.03 μM in wells",++
same,Significance,"[1]; Exp 16 day 21, Podophyllotoxin No 6 (lot 12K1562, solved in DMSO the same day), 0.065 μM",doubtful
same,Growth,"[1]; Exp 16 day 21, Podophyllotoxin No 6 (lot 12K1562, solved in DMSO the same day), 0.065 μM in wells",(+
same,Significance,"[1]; Exp 16 day 21, Podophyllotoxin No 7 (lot 12K1562, solved in DMSO the same day), 0.139 μM",doubtful
same,Growth,"[1]; Exp 16 day 21, Podophyllotoxin No 7 (lot 12K1562, solved in DMSO the same day), 0.139 μM in wells",(+
same,Significance,"[1]; Exp 16 day 21, Podophyllotoxin No 7 (lot 12K1562, solved in DMSO the same day), 0.3 μM",possible
same,Growth,"[1]; Exp 16 day 21, Podophyllotoxin No 7 (lot 12K1562, solved in DMSO the same day), 0.3 μM in wells",(+)
same,Effect on growth in high- and low-density areas,"[2]; Exp 17, 144000 S100T1 cells/well",growth inhibition of both high and low-density areas; also recorded: significant inhibition of growth in crowded areas
same,"Clonal growth, results read on the day 14","[2]; Exp 17, a: close to densely seeded cell areas, High: Colchicine 1, Podophyllotoxin 3, Etoposide 200, 4-OH—OPB 6.7 μM in wells, DMSO 29.2 μl",(+)
same,"Clonal growth, results read on the day 14","[2]; Exp 17, a: close to densely seeded cell areas, Low: Colchicine 0.1, Podophyllotoxin 0.3, Etoposide 20, 4-OH—OPB 0.67 μM in wells, DMSO 1.16 μl",(+
same,"Clonal growth, results read on the day 14","[2]; Exp 17, a: close to densely seeded cell areas, Medium: Colchicine 0.3, Podophyllotoxin 0.9, Etoposide 60, 4-OH—OPB 2 μM in wells, DMSO 6.8 μl",(+
same,"Clonal growth, results read on the day 14","[2]; Exp 17, b: sparsely seeded areas in the same agar culture, High: Colchicine 1, Podophyllotoxin 3, Etoposide 200, 4-OH—OPB 6.7 μM in wells, DMSO 29.2 μl",(+)
same,"Clonal growth, results read on the day 14","[2]; Exp 17, b: sparsely seeded areas in the same agar culture, Low: Colchicine 0.1, Podophyllotoxin 0.3, Etoposide 20, 4-OH—OPB 0.67 μM in wells, DMSO 1.16 μl",+
same,"Clonal growth, results read on the day 14","[2]; Exp 17, b: sparsely seeded areas in the same agar culture, Medium: Colchicine 0.3, Podophyllotoxin 0.9, Etoposide 60, 4-OH—OPB 2 μM in wells, DMSO 6.8 μl",+
same,Clones in sparsely seeded locations of the agar,"[2]; Exp 17, compared with 4-OH-OPB",allow the growth of a few small clones in sparsely seeded locations of the agar; also recorded: to allow the growth of a few small clones in sparsely
same,Significance,"[2]; a: close to densely seeded cell areas, High: Colchicine 1, Podophyllotoxin 3, Etoposide 200, 4-OH—OPB 6.7 μM in wells, DMSO 29.2 μl",Possible
same,Significance,"[2]; a: close to densely seeded cell areas, Low: Colchicine 0.1, Podophyllotoxin 0.3, Etoposide 20, 4-OH—OPB 0.67 μM in wells, DMSO 1.16 μl",Doubtful
same,Significance,"[2]; a: close to densely seeded cell areas, Medium: Colchicine 0.3, Podophyllotoxin 0.9, Etoposide 60, 4-OH—OPB 2 μM in wells, DMSO 6.8 μl",Doubtful
same,Significance,"[2]; b: sparsely seeded areas, High: Colchicine 1, Podophyllotoxin 3, Etoposide 200, 4-OH—OPB 6.7 μM in wells, DMSO 29.2 μl",Possible
same,Significance,"[2]; b: sparsely seeded areas, Low: Colchicine 0.1, Podophyllotoxin 0.3, Etoposide 20, 4-OH—OPB 0.67 μM in wells, DMSO 1.16 μl",No
same,Significance,"[2]; b: sparsely seeded areas, Medium: Colchicine 0.3, Podophyllotoxin 0.9, Etoposide 60, 4-OH—OPB 2 μM in wells, DMSO 6.8 μl",No
same,Control of metastatic cells leaving tumour,"[2]; ability of cells to leave a tumour, grow and infiltrate locally or grow in sparsely seeded areas, concluded from Exp 17",probably not
same,"Clonal growth, H high density area of cell gradient, High",[2]; [4],(+)
same,"Clonal growth, L low density area of cell gradient, High",[2]; [4],(+)
same,"Clonal growth, H high density area of cell gradient, Low",[2]; [5],(+
same,"Clonal growth, L low density area of cell gradient, Low",[2]; [5],+
same,"Clonal growth, H high density area of cell gradient, Medium",[2]; [6],(+
same,"Clonal growth, L low density area of cell gradient, Medium",[2]; [6],+
same,Effect on cell cloning in soft agar,"[2]; preliminary results, in words",cytotoxic
same,Control of settlement of metastatic cells,"[2]; single cells or very few cells spread to distant sites, concluded from Exp 17",partly
same,Toxicity for body or dense cell populations,"[2]; supposed main advantages or disadvantages if used in cancer treatment, concluded from Exp 17",yes
same,Tolerating long duration of treatment,"[2]; supposed, if used in cancer treatment",no
